# Measurements: US20200087258A1, “INHIBITOR OF CITRATE TRANSPORTER AND THEIR USE IN THERAPY” (Eternygen GmbH, priority 2017, published 2020)
# What was measured:
# INDY [1] = target: T1, INDY (Homo sapiens, UniProt Q86YT5); assay: 14C-citrate uptake in HepG2 cells endogenously expressing INDY (NaCT); format: cell-based; details: endogenous INDY
# Protocol: (§1) The compound was obtained by screening of a library containing more than 50,000 lead-like compounds and fragments. The library was tested using a functional citrate uptake assay with HEK293 cells overexpressing recombinant human INDY. The following hit confirmation was conducted in the same assay system. To confirm the activity of selected compounds on the target INDY another cell assay was conducted. In this assay system citrate uptake was measured using HepG2 cells which endogenously express INDY. Furthermore selectivity of selected compounds was tested for two other transporters in different assay systems. The first transporter was the glutamate transporter GLT-1 tested in a glutamate uptake assays using HEK293 cells overexpressing recombinant human GLT-1. The second transporter was the glucose transporter GLUT1 tested in a glucose uptake assay using Huh-7 cells which endogenously express GLUT1. Compounds were considered to be selective with an at least 5-fold higher activity for INDY than for the other two transporters.
# (§2) Cells were maintained in cell medium using cell culture grade flasks (CellSTACK Corning, 500 cm2 dishes or T175 depending on cell number). The selection antibiotic and G418 (800 μg/ml) was added during cultivation but not for seeding into assay plates. For splitting, cells were washed with PBS (w/o Ca2+, Mg2+, phenol red) and detached with Trypsin/EDTA. Throughout cultivation cells were kept sub-confluent. Detached cells (50,000 cells/well) were seeded in 96-well plates (white, clear bottom from Corning #655098) and incubated over night before usage in the assay. The following media were used. For HEK293 cells expressing INDY MEM (PAA)+10% FCS+1×P/S+2 mM L-Gln; for HEK293 cells expressing GLT-1 DMEM (Gibco)+10% FCS+400 µg/ml G418; for Huh7 cells DMEM (Gibco)+10% FCS+2 mM L-Gin (+1×P/S); for HepG2 cells MEM (PAA, Cat # E15-024)+10% FCS+2 mM L-Gin+1×NEAA+1 mM Na-Pyruvat
# (§3) The following assay buffers for the particular uptake reaction were used. Citrate uptake buffer: 120 mM NaCl, 5.4 mM KCl, 0.8 mM MgSO4, 5 mM glucose, 1.8 mM CaCl2, 25 mM Hepes, 25 mM MES, pH 6.5. Glutamate uptake buffer: HBSS, 1 mM CaCl2, 1 mM MgCl2, 20 mM Hepes pH 7.4. Glucose uptake buffer: 25 mM Hepes+25 mM MES pH 7.4, 120 mM NaCl, 5.4 mM KCl, 1.8 mM CaCl2, 0.8 mM MgSO4.
# INDY mediated citrate uptake was also determined in HepG2 cells. To determine the uptake of ^14C labelled citrate into cells, HepG2 cells endogenously expressing human NaCT were used. (Gopal et al. 2007 Am J Physiol Gastrointest Liver Physiol 292).
# HepG2 cells were seeded into white clear-bottom 96-well plates (50,000/well) coated with collagen and incubated at 37° C. for 16-24 hours. After that plates were washed once with assay buffer using automated washing/LS 405 Selectors, BioTek ending with a buffer volume of 40 μl. Then 5 μl of compound solution in assay buffer was added and incubated for 5 min at 37° C. in cell incubator, HERA cell Heraeus. Afterwards 10 μl of substrate 14C-citrate (10 nM) were added and incubated for another 90 min at 37° C. in cell incubator, HERAcell. Then plates were washed 3× with 200 μl buffer and […] cell lysis induced by adding 50 μl ice-cold NaOH (100 mM). Plates were incubated for 25 min at RT on a plate shaker and afterwards 200 μl scintillation fluid was added and incubated for 15 min on a plate shaker at RT and for another 15 min without shaking at RT. Plates were measured using a TopCount system. As a positive control 5 mM citrate was applied. It is possible to use this assay also in analogy in a 384-well plate format.
# INDY [2] = target: T1, INDY; assay: 14C-citrate uptake in HEK293 cells overexpressing recombinant human INDY (NaCT); format: cell-based; parameters: expressed in transfected cells; host or cells: HEK293
# Protocol: as §1, §2, §3
# INDY mediated citrate uptake was determined in HEK293 cells. To determine the uptake of ^14C labelled citrate into cells, HEK293 cells over-expressing human NaCT were used. Cloning of human NaCT was done in analogy as described in Birkenfeld et al. (Birkenfeld et al., 2011, Cell Metabolism 14, 184-195, 2011).
# Human NaCT HEK293 cells were seeded into white clear-bottom 96-well plates (50,000/well) in the presence of 4 μg/ml Poly-D-Lysine and incubated at 37° C. for 16-24 hours. On the days of the assay the plates were washed once with assay buffer using automated washing/LS 405 Selectors, BioTek ending with a buffer volume of 40 μl. Then 5 μl of compound solution in assay buffer was added and incubated for 5-30 min at 37° C. in cell incubator, HERA cell Heraeus. Afterwards 10 μl of substrate 14C-citrate ([…]/[…] per well) were added and incubated for another 20-90 min at 37° C. in cell incubator, HERAcell. Then plates were washed twice with 200 μl ice-cold assay buffer and residual volume was discarded. For cell lysis 50 μl ice-cold NaOH (100 mM) was added and incubated for 15 minutes at RT on a plate shaker. Finally, 200 μl scintillation fluid (scintillator OptiPhase Supermix, Perkin Elmer) was added. After 15 min incubation at RT without shaking, plates were measured using a TopCount reader system (Perkin Elmer). As a positive control 10 mM citrate was applied. It is possible to use this assay also in analogy in a 384-well plate format.
# T1 sequence (Q86YT5 whole entry, the tested form may be a part): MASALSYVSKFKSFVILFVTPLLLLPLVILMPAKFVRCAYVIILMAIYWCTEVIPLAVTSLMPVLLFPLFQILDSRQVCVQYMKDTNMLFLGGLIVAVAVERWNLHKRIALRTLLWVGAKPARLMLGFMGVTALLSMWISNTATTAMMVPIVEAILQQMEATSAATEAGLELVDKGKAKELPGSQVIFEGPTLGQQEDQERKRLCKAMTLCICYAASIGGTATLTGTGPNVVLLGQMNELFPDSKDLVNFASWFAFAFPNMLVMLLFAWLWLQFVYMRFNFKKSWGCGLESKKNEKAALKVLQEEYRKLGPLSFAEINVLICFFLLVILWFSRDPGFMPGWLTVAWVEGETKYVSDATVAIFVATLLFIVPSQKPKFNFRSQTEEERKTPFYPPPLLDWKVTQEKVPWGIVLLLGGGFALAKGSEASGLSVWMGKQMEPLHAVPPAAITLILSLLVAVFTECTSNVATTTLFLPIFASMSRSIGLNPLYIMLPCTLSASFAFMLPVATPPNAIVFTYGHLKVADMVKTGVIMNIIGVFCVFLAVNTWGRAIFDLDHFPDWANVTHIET
SMILES,IC50 (INDY [1]) [µM],IC50 (INDY [2]) [µM]
"O=C(NCc1ccccn1)C1CCN(S(=O)(=O)/C=C/c2ccccc2)CC1 [Example 3, 1-[(E)-2-phenylethenesulfonyl]-N-(pyridin-2-ylmethyl)piperidine-4-carboxamide]",11.3,–
"COc1ccc(S(=O)(=O)N2CCC(C(=O)NCc3ccccc3F)CC2)cc1 [Example 4, N-[(2-fluorophenyl)methyl]-1-(4-methoxybenzenesulfonyl) piperidine-4-carboxamide]",5.7,–
"O=C(NCc1ccccc1F)N1CCN(S(=O)(=O)/C=C/c2ccccc2)CC1 [Example 7, N-[(2-fluorophenyl)methyl]-4-[(E)-2-phenylethenesulfonyl]piperazine-1-carboxamide]",> 50,–
"CN(Cc1ccccc1F)C(=O)C1CCN(S(=O)(=O)/C=C/c2ccccc2)CC1 [Example 8, N-[(2-fluorophenyl)methyl]-N-methyl-1-[(E)-2-phenylethenesulfonyl]piperidine-4-carboxamide]",> 50,–
"O=C(NCc1ccccc1F)C1CCN(S(=O)(=O)C2=Cc3ccccc3OC2)CC1 [Example 9, 1-(2H-chromene-3-sulfonyl)-N-[(2-fluorophenyl)methyl]piperidine-4-carboxamide]",> 50,–
"O=Cc1ccc(S(=O)(=O)N2CCC(C(=O)NCc3ccccc3F)CC2)cc1 [Example 94, N-[(2-fluorophenyl)methyl]-1-(4-formylbenzenesulfonyl)piperidine-4-carboxamide]",–,> 20
"NCc1ccccc1CNC(=O)C1CCN(S(=O)(=O)c2cc(Cl)cc(Cl)c2)CC1 [Example 98, N-([2-(aminomethyl)phenyl]methyl)-1-(3,5-dichlorobenzenesulfonyl)piperidine-4-carboxamide]",–,> 20
"O=C(NCc1ccccc1F)C1CCN(S(=O)(=O)c2ccc(CO)cc2)CC1 [Example 100, N-[(2-fluorophenyl)methyl]-1-[4-(hydroxymethyl)benzenesulfonyl]piperidine-4-carboxamide]",–,> 20
"CN(C)CCOc1ccc(S(=O)(=O)N2CCC(C(=O)NCc3ccccc3F)CC2)cc1 [Example 102, 1-(4-[2-(dimethylamino)ethoxy]benzenesulfonyl)-N-[(2-fluorophenyl)methyl]piperidine-4-carboxamide]",–,> 20
"O=C(NCc1ccc(CO)cc1)C1CCN(S(=O)(=O)c2ccc(C(F)(F)F)cc2)CC1 [Example 104, N-([4-(hydroxymethyl)phenyl]methyl)-1-[4-(trifluoromethyl)benzenesulfonyl]piperidine-4-carboxamide]",–,> 20
"O=C(NCc1ccccc1F)C1CCN(S(=O)(=O)c2ccc(CN3CCCC3)cc2)CC1 [Example 105, N-[(2-fluorophenyl)methyl]-1-{4-[(pyrrolidin-1-yl)methyl]benzenesulfonyl}piperidine-4-carboxamide]",–,> 20
"CCCNC(C)c1cccc(S(=O)(=O)N2CCC(C(=O)NCc3ccccc3F)CC2)c1 (stereo not shown) [Example 109, N-[(2-fluorophenyl)methyl]-1-{3-[1-(propylamino)ethyl]benzenesulfonyl}piperidine-4-carboxamide]",–,> 20
"CNC(C)c1cccc(S(=O)(=O)N2CCC(C(=O)NCc3ccccc3F)CC2)c1 (stereo not shown) [Example 110, N-[(2-fluorophenyl)methyl]-1-{3-[1-(methylamino)ethyl]benzenesulfonyl}piperidine-4-carboxamide]",–,> 20
"CCN(CC)C(C)c1cccc(S(=O)(=O)N2CCC(C(=O)NCc3ccccc3F)CC2)c1 (stereo not shown) [Example 113, 1-{3-[1-(diethylamino)ethyl]benzenesulfonyl}-N-[(2-fluorophenyl)methyl]piperidine-4-carboxamide]",–,> 20
"O=C(O)c1cccc(CNC(=O)C2CCN(S(=O)(=O)c3cc(Cl)cc(Cl)c3)CC2)c1 [Example 119, 3-({[1-(3,5-dichlorobenzenesulfonyl)piperidin-4-yl]formamido}methyl)benzoic acid]",–,> 20
"CN(Cc1ccccn1)C(=O)C1CCN(S(=O)(=O)c2cc(Cl)cc(Cl)c2)CC1 [Example 128, 1-(3,5-dichlorobenzenesulfonyl)-N-methyl-N-[(pyridin-2-yl)methyl]piperidine-4-carboxamide]",–,> 20

# The next lines start with the values.
IC50 (INDY [1]) [µM],IC50 (INDY [2]) [µM],SMILES
–,> 20,"COC(=O)c1ccc(S(=O)(=O)N2CCC(C(=O)NCc3ccccc3F)CC2)cc1 [Example 89, methyl 4-[(4-{[(2-fluorophenyl)methyl]carbamoyl}piperidin-1-yl)sulfonyl]benzoate]"
–,> 20,"O=C(O)c1cccc(S(=O)(=O)N2CCC(C(=O)NCc3ccccc3F)CC2)c1 [Example 90, 3-[(4-{[(2-fluorophenyl)methyl]carbamoyl}piperidin-1-yl)sulfonyl]benzoic acid]"
–,> 20,"O=C(O)c1ccc(S(=O)(=O)N2CCC(C(=O)NCc3ccccc3F)CC2)cc1 [Example 91, 4-[(4-{[(2-fluorophenyl)methyl]carbamoyl}piperidin-1-yl)sulfonyl]benzoic acid]"
–,16.4,"O=C(NCc1ccccn1)C1CCN(S(=O)(=O)c2cccc(OC(F)(F)F)c2)CC1 [Example 93, N-[(pyridin-2-yl)methyl]-1-[3-(trifluoromethoxy)benzenesulfonyl]piperidine-4-carboxamide]"
–,11.1,"CC(=O)c1cccc(S(=O)(=O)N2CCC(C(=O)NCc3ccccc3F)CC2)c1 [Example 106, 1-(3-acetylbenzenesulfonyl)-N-[(2-fluorophenyl)methyl]piperidine-4-carboxamide]"
–,13.2,"CC(O)c1cccc(S(=O)(=O)N2CCC(C(=O)NCc3ccccc3F)CC2)c1 (stereo not shown) [Example 107, N-[(2-fluorophenyl)methyl]-1-[3-(1-hydroxyethyl)benzenesulfonyl]piperidine-4-carboxamide]"
–,20.4,"C/C(=N\O)c1cccc(S(=O)(=O)N2CCC(C(=O)NCc3ccccc3F)CC2)c1 [Example 108, N-[(2-fluorophenyl)methyl]-1-{3-[(1E)-1-(hydroxyimino)ethyl]benzenesulfonyl}piperidine-4-carboxamide]"
–,18.8,"Cc1cc(S(=O)(=O)N2CCC(C(=O)NCc3ccccn3)CC2)ccc1Cl [Example 121, 1-(4-chloro-3-methylbenzenesulfonyl)-N-[(pyridin-2-yl)methyl]piperidine-4-carboxamide]"
–,18.8,"Cc1ccc(S(=O)(=O)N2CCC(C(=O)NCc3ccccn3)CC2)cc1Cl [Example 122, 1-(3-chloro-4-methylbenzenesulfonyl)-N-[(pyridin-2-yl)methyl]piperidine-4-carboxamide]"
